Measured values published in patent publication US20150322051A1, “Macrocyclic picolinamides as fungicides” (Dow AgroSciences LLC, priority 2014, published 2015).
Like-named read-outs stand apart in the source and are kept apart here.

Tests used:
[1] = test system: Mycosphaerella graminicola; anamorph: Septoria tritici (SEPTTR); test: Leaf blotch of wheat (SEPTTR) whole-plant fungicidal test; type: in vivo; details: Zymoseptoria tritici, topical; for pest or weed control at 121.5 g/ha: low volume (track spray) application, 121.5 g/H; for pest or weed control at 100 ppm: high volume application
Experimental: (§1) All fungicides were evaluated using the aforementioned method for their activity vs. all target diseases, unless stated otherwise. Wheat leaf blotch and brown rust activity were also evaluated using track spray applications, in which case the fungicides were formulated as EC formulations, containing 0.1% Trycol 5941 in the spray solutions. Wheat plants (variety Yuma) were grown from seed in a greenhouse in 50% mineral soil/50% soil-less Metro mix until the first leaf was fully emerged, with 7-10 seedlings per pot. These plants were inoculated with an aqueous spore suspension of Septoria tritici either prior to or after fungicide treatments. After inoculation the plants were kept in 100% relative humidity (one day in a dark dew chamber followed by two to three days in a lighted dew chamber at 20° C.) to permit spores to germinate and infect the leaf. The plants were then transferred to a greenhouse set at 20° C. for disease to develop. When disease symptoms were fully expressed on the 1st leaves of untreated plants, infection levels were assessed on a scale of 0 to 100 percent disease severity. Percent disease control was calculated using the ratio of disease severity on treated plants relative to untreated plants.

[2] = test system: Puccinia triticina; synonym: Puccinia recondita f. sp. tritici (PUCCRT); test: Wheat brown rust (PUCCRT) whole-plant fungicidal test; type: in vivo; details: topical; for pest or weed control at 121.5 g/ha: low volume (track spray) application, 121.5 g/H; for pest or weed control at 100 ppm: high volume application
Experimental: as §1, with “plants. Wheat plants (variety Yuma) were grown from seed in a greenhouse in 50% mineral soil/50% soil-less Metro mix until the first leaf was fully emerged, with 7-10 seedlings per pot. These plants were inoculated with an aqueous spore suspension of Puccinia triticina either prior to or after fungicide treatments. […] The plants were then transferred to a greenhouse set at 24° C. for disease to develop. Fungicide formulation, application and disease assessment followed the procedures as described in the Example A.” for “plants.”

[3] = 24 h, 1 Day Protectant, read-out: Low Volume activity at 121.5 g/H SEPTTR 1DP (% disease control rating)
[4] = 72 h, 3 Day Curative, read-out: Low Volume activity at 121.5 g/H SEPTTR 3DC (% disease control rating)
[5] = 24 h, 1 Day Protectant, read-out: Low Volume activity at 121.5 g/H PUCCRT 1DP (% disease control rating)
[6] = 72 h, 3 Day Curative, read-out: Low Volume activity at 121.5 g/H PUCCRT 3DC (% disease control rating)
[7] = 24 h, 1 Day Protectant, read-out: High Volume activity at 100 ppm SEPTTR 1DP (% disease control rating)
[8] = 72 h, 3 Day Curative, read-out: High Volume activity at 100 ppm SEPTTR 3DC (% disease control rating)
[9] = 24 h, 1 Day Protectant, read-out: High Volume activity at 100 ppm PUCCRT 1DP (% disease control rating)
[10] = 72 h, 3 Day Curative, read-out: High Volume activity at 100 ppm PUCCRT 3DC (% disease control rating)

| SMILES | pest or weed control at 121.5 g/ha [1, 3] | pest or weed control at 121.5 g/ha [1, 4] | pest or weed control at 121.5 g/ha [2, 5] | pest or weed control at 121.5 g/ha [2, 6] | pest or weed control at 100 ppm [1, 7] | pest or weed control at 100 ppm [1, 8] | pest or weed control at 100 ppm [2, 9] | pest or weed control at 100 ppm [2, 10] |
| --- | --- | --- | --- | --- | --- | --- | --- | --- |
| COc1ccnc(C(=O)N[C@H]2CCC[C@H](Cc3ccc(Cl)cc3)[C@@H](Cc3ccccc3)[C@H](C)OC2=O)c1OC(C)=O [Compound 21] | > 70% | < 70% | > 70% | < 70% |  |  |  |  |
| COc1ccnc(C(=O)N[C@H]2CCC[C@H](Cc3ccccc3)[C@@H](C3CCCC3)[C@H](C)OC2=O)c1O [Compound 75] |  |  |  |  | > 70% | > 70% | > 70% | < 70% |
| CCCC[C@@H]1[C@@H](Cc2ccccc2)CCC[C@H](NC(=O)c2nccc(OC)c2O)C(=O)O[C@H]1C [Compound 71, N-((3S,7R,8R,9S)-7-benzyl-8-butyl-9-methyl-2-oxooxonan-3-yl)-3-hydroxy-4-methoxypicolinamide] |  |  |  |  | > 70% | < 70% | > 70% | > 70% |
| COc1ccnc(C(=O)N[C@H]2CCC[C@H](Cc3ccc(C(F)(F)F)cc3)[C@@H](CC(C)C)[C@H](C)OC2=O)c1OCOC(C)=O [Compound 23] | > 70% | < 70% | > 70% | < 70% |  |  |  |  |
| COc1ccnc(C(=O)N[C@H]2CCC[C@H](Cc3ccc(C(F)(F)F)cc3)[C@@H](Cc3ccc(OC(F)(F)F)cc3)[C@H](C)OC2=O)c1O [Compound 96] |  |  |  |  | < 70% | < 70% | < 70% | < 70% |
| COc1ccnc(C(=O)N[C@H]2CCC[C@H](Cc3ccc(C(F)(F)F)cc3)[C@@H](Cc3ccc(F)cc3)[C@H](C)OC2=O)c1OC(C)=O [Compound 40] | > 70% | < 70% | < 70% | < 70% |  |  |  |  |
| COc1ccnc(C(=O)N[C@H]2CCC[C@H](Cc3ccccc3)[C@@H](Cc3ccccc3)[C@H](C)OC2=O)c1O [Compound 74] |  |  |  |  | > 70% | > 70% | > 70% | > 70% |
| COc1ccnc(C(=O)N[C@H]2CCC[C@H](Cc3ccc(C(F)(F)F)cc3)[C@@H](Cc3ccc(F)cc3)[C@H](C)OC2=O)c1OCOC(=O)C(C)C [Compound 41] | < 70% | < 70% | < 70% | < 70% |  |  |  |  |
| CCOCC(=O)OCOc1c(OC)ccnc1C(=O)N[C@H]1CCC[C@H](Cc2ccc(Cl)cc2)[C@@H](Cc2ccccc2)[C@H](C)OC1=O [Compound 20] | > 70% | < 70% | > 70% | > 70% |  |  |  |  |
| COc1ccnc(C(=O)N[C@H]2CCC[C@H](CCCc3ccccc3)[C@@H](CCc3ccccc3)[C@H](C)OC2=O)c1O [Compound 85] |  |  |  |  | > 70% | < 70% | > 70% | < 70% |
| CCC[C@H]1CCC[C@H](NC(=O)c2nccc(OC)c2OC(C)=O)C(=O)O[C@@H](C)[C@@H]1Cc1ccc(F)cc1 [Compound 46] | > 70% | > 70% | > 70% | > 70% |  |  |  |  |
| COc1ccnc(C(=O)N[C@H]2CCC[C@H](CC3CC3)[C@@H](Cc3ccccc3)[C@H](C)OC2=O)c1OCOC(C)=O [Compound 61] | > 70% | > 70% | > 70% | > 70% |  |  |  |  |
